From PubChem BioAssay (NCI)
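1) Cells in 96-well plates. 2) Compound, 48 h, 5 concentrations. 3) Linear interpolation between surrounding doses. 4) Unreached endpoint = highest concentration. TGI denotes the concentration required for complete inhibition of growth.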

What was measured:
Test in all cases: NCI tumour cell line growth inhibition, 48 h
786-0 renal = test system: 786-0 renal
A549 NSCLC = test system: A549 NSCLC
ACHN renal = test system: ACHN renal
CAKI-1 renal = test system: CAKI-1 renal
CCRF-CEM leukemia = test system: CCRF-CEM leukemia
COLO 205 colon = test system: COLO 205 colon
DLD-1 colon = test system: DLD-1 colon
DMS 114 small cell lung = test system: DMS 114 small cell lung
DMS 273 small cell lung = test system: DMS 273 small cell lung
EKVX NSCLC = test system: EKVX NSCLC
HCC-2998 colon = test system: HCC-2998 colon
HCT-116 colon = test system: HCT-116 colon
HCT-15 colon = test system: HCT-15 colon
HL-60(TB) leukemia = test system: HL-60(TB) leukemia
HOP-18 NSCLC = test system: HOP-18 NSCLC
HOP-62 NSCLC = test system: HOP-62 NSCLC
HOP-92 NSCLC = test system: HOP-92 NSCLC
HT29 colon = test system: HT29 colon
IGROV1 ovarian = test system: IGROV1 ovarian
K-562 leukemia = test system: K-562 leukemia
KM12 colon = test system: KM12 colon
KM20L2 colon = test system: KM20L2 colon
LOX IMVI melanoma = test system: LOX IMVI melanoma
LXFL 529 NSCLC = test system: LXFL 529 NSCLC
M14 melanoma = test system: M14 melanoma
M19-MEL melanoma = test system: M19-MEL melanoma
MOLT-4 leukemia = test system: MOLT-4 leukemia
NCI-H226 lung = test system: NCI-H226 lung
NCI-H23 lung = test system: NCI-H23 lung
NCI-H460 lung = test system: NCI-H460 lung
NCI-H522 lung = test system: NCI-H522 lung
OVCAR-3 ovarian = test system: OVCAR-3 ovarian
OVCAR-4 ovarian = test system: OVCAR-4 ovarian
OVCAR-5 ovarian = test system: OVCAR-5 ovarian
OVCAR-8 ovarian = test system: OVCAR-8 ovarian
RPMI-8226 leukemia = test system: RPMI-8226 leukemia
RXF 393 renal = test system: RXF 393 renal
RXF-631 renal = test system: RXF-631 renal
SF-268 CNS = test system: SF-268 CNS
SF-295 CNS = test system: SF-295 CNS
SF-539 CNS = test system: SF-539 CNS
SK-MEL-2 melanoma = test system: SK-MEL-2 melanoma
SK-MEL-28 melanoma = test system: SK-MEL-28 melanoma
SK-MEL-5 melanoma = test system: SK-MEL-5 melanoma
SK-OV-3 ovarian = test system: SK-OV-3 ovarian
SN12C renal = test system: SN12C renal
SNB-19 CNS = test system: SNB-19 CNS
SNB-75 CNS = test system: SNB-75 CNS
SNB-78 CNS = test system: SNB-78 CNS
SR leukemia = test system: SR leukemia
SW-620 colon = test system: SW-620 colon
TK-10 renal = test system: TK-10 renal
U251 CNS = test system: U251 CNS
UACC-257 melanoma = test system: UACC-257 melanoma
UACC-62 melanoma = test system: UACC-62 melanoma
UO-31 renal = test system: UO-31 renal
XF 498 CNS = test system: XF 498 CNS
A498 renal = test system: A498 renal
MALME-3M melanoma = test system: MALME-3M melanoma

## COC(=O)/C(C=O)=C/Sc1ccccc1
786-0 renal
  TGI: 30.2 µM
A549 NSCLC
  TGI: > 100 µM
ACHN renal
  TGI: > 100 µM
CAKI-1 renal
  TGI: 62 µM
CCRF-CEM leukemia
  TGI: > 100 µM
COLO 205 colon
  TGI: 42.9 µM
DLD-1 colon
  TGI: 66 µM
DMS 114 small cell lung
  TGI: 41 µM
DMS 273 small cell lung
  TGI: 53.2 µM
EKVX NSCLC
  TGI: > 100 µM
HCC-2998 colon
  TGI: > 100 µM
HCT-116 colon
  TGI: > 100 µM
HCT-15 colon
  TGI: > 100 µM
HL-60(TB) leukemia
  TGI: > 100 µM
HOP-18 NSCLC
  TGI: > 100 µM
HOP-62 NSCLC
  TGI: > 100 µM
HOP-92 NSCLC
  TGI: > 100 µM
HT29 colon
  TGI: 81.3 µM
IGROV1 ovarian
  TGI: 28.8 µM
K-562 leukemia
  TGI: > 100 µM
KM12 colon
  TGI: > 100 µM
KM20L2 colon
  TGI: 94.7 µM
LOX IMVI melanoma
  TGI: 23 µM
LXFL 529 NSCLC
  TGI: 78.9 µM
M14 melanoma
  TGI: 42.6 µM
M19-MEL melanoma
  TGI: 55.7 µM
MOLT-4 leukemia
  TGI: > 100 µM
NCI-H226 lung
  TGI: 44.6 µM
NCI-H23 lung
  TGI: > 100 µM
NCI-H460 lung
  TGI: > 100 µM
NCI-H522 lung
  TGI: 24 µM
OVCAR-3 ovarian
  TGI: 65.8 µM
OVCAR-4 ovarian
  TGI: > 100 µM
OVCAR-5 ovarian
  TGI: 93.8 µM
OVCAR-8 ovarian
  TGI: 31.8 µM
RPMI-8226 leukemia
  TGI: > 100 µM
RXF 393 renal
  TGI: 51.7 µM
RXF-631 renal
  TGI: 45.7 µM
SF-268 CNS
  TGI: 33 µM
SF-295 CNS
  TGI: > 100 µM
SF-539 CNS
  TGI: 33.2 µM
SK-MEL-2 melanoma
  TGI: 91.8 µM
SK-MEL-28 melanoma
  TGI: 59.2 µM
SK-MEL-5 melanoma
  TGI: 85.2 µM
SK-OV-3 ovarian
  TGI: 88.5 µM
SN12C renal
  TGI: 42.9 µM
SNB-19 CNS
  TGI: > 100 µM
SNB-75 CNS
  TGI: 50.9 µM
SNB-78 CNS
  TGI: > 100 µM
SR leukemia
  TGI: > 100 µM
SW-620 colon
  TGI: > 100 µM
TK-10 renal
  TGI: > 100 µM
U251 CNS
  TGI: 42.2 µM
UACC-257 melanoma
  TGI: > 100 µM
UACC-62 melanoma
  TGI: 77.8 µM
UO-31 renal
  TGI: 30.7 µM
XF 498 CNS
  TGI: > 100 µM

## O=C(Nc1cc(Cl)ccc1Cl)C(=O)C(c1cnc2ccccc2n1)[N+](=O)[O-] (stereo not given)
786-0 renal
  TGI: > 100 µM
A498 renal
  TGI: > 100 µM
A549 NSCLC
  TGI: > 100 µM
ACHN renal
  TGI: > 100 µM
CAKI-1 renal
  TGI: > 100 µM
CCRF-CEM leukemia
  TGI: > 100 µM
COLO 205 colon
  TGI: > 100 µM
DLD-1 colon
  TGI: > 100 µM
DMS 114 small cell lung
  TGI: > 100 µM
EKVX NSCLC
  TGI: > 100 µM
HCC-2998 colon
  TGI: > 100 µM
HCT-116 colon
  TGI: > 100 µM
HCT-15 colon
  TGI: > 100 µM
HL-60(TB) leukemia
  TGI: > 100 µM
HOP-18 NSCLC
  TGI: > 100 µM
HOP-62 NSCLC
  TGI: > 100 µM
HOP-92 NSCLC
  TGI: > 100 µM
HT29 colon
  TGI: > 100 µM
IGROV1 ovarian
  TGI: > 100 µM
K-562 leukemia
  TGI: > 100 µM
KM12 colon
  TGI: > 100 µM
KM20L2 colon
  TGI: > 100 µM
LOX IMVI melanoma
  TGI: > 100 µM
LXFL 529 NSCLC
  TGI: > 100 µM
M14 melanoma
  TGI: > 100 µM
M19-MEL melanoma
  TGI: > 100 µM
MALME-3M melanoma
  TGI: > 100 µM
MOLT-4 leukemia
  TGI: > 100 µM
NCI-H226 lung
  TGI: > 100 µM
NCI-H23 lung
  TGI: > 100 µM
NCI-H460 lung
  TGI: > 100 µM
NCI-H522 lung
  TGI: > 100 µM
OVCAR-3 ovarian
  TGI: > 100 µM
OVCAR-4 ovarian
  TGI: > 100 µM
OVCAR-5 ovarian
  TGI: > 100 µM
OVCAR-8 ovarian
  TGI: > 100 µM
RPMI-8226 leukemia
  TGI: > 100 µM
RXF 393 renal
  TGI: > 100 µM
RXF-631 renal
  TGI: > 100 µM
SF-268 CNS
  TGI: > 100 µM
SF-295 CNS
  TGI: > 100 µM
SF-539 CNS
  TGI: > 100 µM
SK-MEL-28 melanoma
  TGI: > 100 µM
SK-MEL-5 melanoma
  TGI: > 100 µM
SK-OV-3 ovarian
  TGI: > 100 µM
SN12C renal
  TGI: > 100 µM
SNB-19 CNS
  TGI: > 100 µM
SNB-75 CNS
  TGI: > 100 µM
SNB-78 CNS
  TGI: > 100 µM
SR leukemia
  TGI: > 100 µM
SW-620 colon
  TGI: > 100 µM
TK-10 renal
  TGI: > 100 µM
U251 CNS
  TGI: > 100 µM
UACC-257 melanoma
  TGI: > 100 µM
UACC-62 melanoma
  TGI: > 100 µM
UO-31 renal
  TGI: > 100 µM
XF 498 CNS
  TGI: > 100 µM

## COc1cc2ccc3c4cc(OC)c(OC(C)C)cc4cnc3c2cc1OC
786-0 renal
  TGI: > 100 µM
A549 NSCLC
  TGI: > 100 µM
ACHN renal
  TGI: > 100 µM
CAKI-1 renal
  TGI: > 100 µM
CCRF-CEM leukemia
  TGI: > 100 µM
COLO 205 colon
  TGI: > 100 µM
DLD-1 colon
  TGI: > 100 µM
DMS 114 small cell lung
  TGI: > 100 µM
EKVX NSCLC
  TGI: > 100 µM
HCC-2998 colon
  TGI: > 100 µM
HCT-116 colon
  TGI: > 100 µM
HCT-15 colon
  TGI: > 100 µM
HL-60(TB) leukemia
  TGI: > 100 µM
HOP-18 NSCLC
  TGI: > 100 µM
HOP-62 NSCLC
  TGI: > 100 µM
HOP-92 NSCLC
  TGI: > 100 µM
HT29 colon
  TGI: > 100 µM
IGROV1 ovarian
  TGI: > 100 µM
K-562 leukemia
  TGI: > 100 µM
KM12 colon
  TGI: > 100 µM
KM20L2 colon
  TGI: > 100 µM
LOX IMVI melanoma
  TGI: > 100 µM
LXFL 529 NSCLC
  TGI: > 100 µM
M14 melanoma
  TGI: > 100 µM
M19-MEL melanoma
  TGI: > 100 µM
MALME-3M melanoma
  TGI: > 100 µM
MOLT-4 leukemia
  TGI: > 100 µM
NCI-H226 lung
  TGI: > 100 µM
NCI-H23 lung
  TGI: > 100 µM
NCI-H460 lung
  TGI: > 100 µM
NCI-H522 lung
  TGI: > 100 µM
OVCAR-3 ovarian
  TGI: > 100 µM
OVCAR-4 ovarian
  TGI: > 100 µM
OVCAR-5 ovarian
  TGI: > 100 µM
OVCAR-8 ovarian
  TGI: > 100 µM
RPMI-8226 leukemia
  TGI: > 100 µM
RXF 393 renal
  TGI: > 100 µM
RXF-631 renal
  TGI: > 100 µM
SF-268 CNS
  TGI: > 100 µM
SF-295 CNS
  TGI: > 100 µM
SF-539 CNS
  TGI: > 100 µM
SK-MEL-2 melanoma
  TGI: > 100 µM
SK-MEL-28 melanoma
  TGI: > 100 µM
SK-MEL-5 melanoma
  TGI: > 100 µM
SK-OV-3 ovarian
  TGI: > 100 µM
SN12C renal
  TGI: > 100 µM
SNB-19 CNS
  TGI: > 100 µM
SNB-75 CNS
  TGI: > 100 µM
SNB-78 CNS
  TGI: > 100 µM
SR leukemia
  TGI: > 100 µM
SW-620 colon
  TGI: > 100 µM
TK-10 renal
  TGI: > 100 µM
U251 CNS
  TGI: > 100 µM
UACC-257 melanoma
  TGI: > 100 µM
UACC-62 melanoma
  TGI: > 100 µM
UO-31 renal
  TGI: > 100 µM
